The values that follow come from ChEMBL document CHEMBL4613287, “Glycomimetic Based Approach toward Selective Carbonic Anhydrase Inhibitors” (ACS Med Chem Lett, 2020).

The target of one assay is Carbonic anhydrase 12 (Homo sapiens, UniProt O43570). The experiment in a line: Inhibition of recombinant human carbonic anhydrase 12 preincubated with enzyme for 15 mins by phenol red dye based stopped flow CO2 hydration assay.
The target of another assay is Carbonic anhydrase 7 (Homo sapiens, UniProt P43166). Kind of assay: Inhibition of recombinant human carbonic anhydrase 7 preincubated with enzyme for 15 mins by phenol red dye based stopped flow CO2 hydration assay.
Carbonic anhydrase 7, sequence (P43166 whole entry): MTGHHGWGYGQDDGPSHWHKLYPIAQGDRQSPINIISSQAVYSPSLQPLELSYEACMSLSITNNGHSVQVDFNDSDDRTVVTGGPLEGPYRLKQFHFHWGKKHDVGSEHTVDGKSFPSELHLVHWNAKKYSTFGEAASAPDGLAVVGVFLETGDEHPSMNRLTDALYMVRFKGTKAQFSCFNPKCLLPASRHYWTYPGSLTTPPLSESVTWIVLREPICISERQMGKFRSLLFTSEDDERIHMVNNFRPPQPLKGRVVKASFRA
A further assay concerns the target Carbonic anhydrase 2 (Homo sapiens, UniProt P00918). Kind of assay: Inhibition of recombinant human carbonic anhydrase 2 preincubated with enzyme for 15 mins by phenol red dye based stopped flow CO2 hydration assay.
A further assay deals with Carbonic anhydrase 1 (Homo sapiens, UniProt P00915). The experiment in a line: Inhibition of recombinant human carbonic anhydrase 1 preincubated with enzyme for 15 mins by phenol red dye based stopped flow CO2 hydration assay.
Carbonic anhydrase 1, sequence (P00915 whole entry): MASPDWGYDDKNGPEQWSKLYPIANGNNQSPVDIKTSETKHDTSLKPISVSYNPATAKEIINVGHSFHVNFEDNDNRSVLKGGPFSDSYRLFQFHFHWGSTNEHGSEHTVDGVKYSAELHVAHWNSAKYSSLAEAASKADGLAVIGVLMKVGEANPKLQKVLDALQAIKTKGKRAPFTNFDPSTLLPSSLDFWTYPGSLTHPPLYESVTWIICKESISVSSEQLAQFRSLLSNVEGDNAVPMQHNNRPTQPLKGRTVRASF
The target in a further assay is Carbonic anhydrase 9 (Homo sapiens, UniProt Q16790). The experiment in a line: Inhibition of recombinant human carbonic anhydrase 9 preincubated with enzyme for 15 mins by phenol red dye based stopped flow CO2 hydration assay.

Carbonic anhydrase 12, sequence (O43570 whole entry): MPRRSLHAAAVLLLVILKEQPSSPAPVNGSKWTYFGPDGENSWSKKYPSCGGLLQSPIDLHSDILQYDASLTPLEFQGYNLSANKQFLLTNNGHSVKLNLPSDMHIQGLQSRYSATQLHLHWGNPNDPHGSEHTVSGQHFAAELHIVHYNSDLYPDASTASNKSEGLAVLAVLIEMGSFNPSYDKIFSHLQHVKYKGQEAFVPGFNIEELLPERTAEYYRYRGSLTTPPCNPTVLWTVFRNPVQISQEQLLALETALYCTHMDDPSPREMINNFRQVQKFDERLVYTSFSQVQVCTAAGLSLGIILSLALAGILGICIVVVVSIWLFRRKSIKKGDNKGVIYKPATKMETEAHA

For `CC1(C)O[C@H]2[C@H](O)CN(CCCCCCn3cc(CNc4ccc(S(N)(=O)=O)cc4)nn3)C[C@H]2O1`, the inhibitory constant (Ki) (commonly a measure of affinity in units of concentration, obtained from inhibition or displacement) was determined as 541 nM at Carbonic anhydrase 12; 7.4 nM on Carbonic anhydrase 7; 80.3 nM on Carbonic anhydrase 2; 2880 nM on Carbonic anhydrase 1; 2980 nM at Carbonic anhydrase 9.

As for `CC1(C)O[C@H]2[C@H](O)[C@H]([C@H]3[C@H](O)[C@H]4OC[C@@H](O4)[C@H]3O)N(CCCCCCn3cc(CNc4ccc(S(N)(=O)=O)cc4)nn3)C[C@H]2O1`, the Ki on Carbonic anhydrase 12 amounted to 770 nM; on Carbonic anhydrase 7 it was 31.2 nM; at Carbonic anhydrase 2, 801 nM; at Carbonic anhydrase 1 it was 956 nM; at Carbonic anhydrase 9 it was 35.9 nM.
